This passage reports IC50 results from ChEMBL document CHEMBL3886743, “Immune system modulators” (2016).

The assay addresses T1, Toll-like receptor 9 (Homo sapiens, UniProt Q9NR96).
T1 sequence (Q9NR96 whole entry): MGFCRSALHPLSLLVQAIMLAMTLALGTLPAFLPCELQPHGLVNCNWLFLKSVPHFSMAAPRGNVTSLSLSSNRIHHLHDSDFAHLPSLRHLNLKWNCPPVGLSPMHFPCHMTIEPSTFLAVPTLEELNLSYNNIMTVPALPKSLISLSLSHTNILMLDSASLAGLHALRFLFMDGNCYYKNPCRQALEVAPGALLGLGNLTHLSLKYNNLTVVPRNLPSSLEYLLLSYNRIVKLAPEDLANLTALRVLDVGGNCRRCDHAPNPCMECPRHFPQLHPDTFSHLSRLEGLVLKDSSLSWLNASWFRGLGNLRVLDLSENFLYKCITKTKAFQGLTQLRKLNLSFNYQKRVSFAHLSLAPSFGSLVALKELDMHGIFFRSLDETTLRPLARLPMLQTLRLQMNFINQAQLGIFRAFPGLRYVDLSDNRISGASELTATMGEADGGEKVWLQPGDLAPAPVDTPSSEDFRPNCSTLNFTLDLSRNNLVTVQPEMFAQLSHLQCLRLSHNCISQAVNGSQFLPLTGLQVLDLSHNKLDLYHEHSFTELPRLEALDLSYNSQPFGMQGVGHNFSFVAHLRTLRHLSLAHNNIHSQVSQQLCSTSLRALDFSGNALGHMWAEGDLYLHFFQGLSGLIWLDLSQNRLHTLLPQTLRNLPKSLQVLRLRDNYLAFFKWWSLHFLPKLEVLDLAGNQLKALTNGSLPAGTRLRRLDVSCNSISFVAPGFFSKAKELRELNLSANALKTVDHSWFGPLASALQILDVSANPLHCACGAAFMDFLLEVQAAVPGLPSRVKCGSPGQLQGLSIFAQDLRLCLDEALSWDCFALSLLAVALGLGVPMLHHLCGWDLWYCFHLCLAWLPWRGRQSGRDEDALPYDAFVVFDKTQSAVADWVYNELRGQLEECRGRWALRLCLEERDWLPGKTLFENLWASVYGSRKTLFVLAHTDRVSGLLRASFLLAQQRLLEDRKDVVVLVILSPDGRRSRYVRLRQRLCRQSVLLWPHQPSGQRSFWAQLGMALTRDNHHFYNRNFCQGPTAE
Description: TLR9 Antagonism Assay: Day 1: A cell suspension of HEK-Blue™-hTLR9 cells at ~450,000 cells per ml in test medium which contained 5% (v/v) heat inactivated FBS was prepared. 180 μl of cell suspension (~80,000 cells) was added per well of a flat-bottom 96-well plate and place in an incubator at 37° C. for overnight. Day 2: Test compounds were serially diluted in test medium, generally starting at 10 μM, and diluting by 3 fold in a 96 well master plate. 20 μl of diluted test compound was transferred using a 12 channel multi-channel pipet to the cell plate and incubated at 37° C. for 1 hour. Then 20 μl of an hTLR9 agonist (such as ODN 2006, 1 μM) was added to each well and the plate incubated at 37° C. overnight. Day 3: Invivogen's QUANTI-Blue™ was prepared following the manufacturer's instructions. […] of resuspended QUANTI-Blue™ was added per well of a flat bottom 96-well plate. 20 μl per well of induced HEK-Blue™-hTLR9 cells supernatant was then added to the plate and the plate was incubated at 37° C. for 1-3 h. SEAP levels were determined using a spectrophotometer at 620 nm.
As usually defined, the IC50 is the concentration at which inhibition is half-maximal. The low end stands for inhibition by little substance, the high end for a need for much substance. In turn, `CCCCSc1nc(NCCN2CCOCC2)c2nc(O)n(CCN3CCOCC3)c2n1` displayed an IC50 of 11.1 µM. Compound `CCN1CCN(c2ccc(-c3nc(NCCN4CCOCC4)c4nc[nH]c4n3)cc2)CC1` gave an IC50 of 0.142 µM. Consider `CN1CCN(CCNc2nc(-c3ccccc3)nc3c2ncn3CCN2CCN(C)CC2)CC1`, for which the IC50 stood at 0.604 µM. As for `CN1CCN(CCNc2nc(-c3ccccc3)nc3c2ncn3CCN2CCOCC2)CC1`, the figure is 3.29 µM. In the case of `CN1CCN(c2ccc(-c3nc(NCCN4CCOCC4)c4nc[nH]c4n3)cc2)CC1`, the IC50 was 0.072 µM. Next, `c1ccc(-c2nc(NCCN3CCOCC3)c3ncn(CCN4CCOCC4)c3n2)cc1`: 7.53 µM; `Oc1nc2c(NCCN3CCOCC3)nc(-c3ccccc3)nc2n1CCN1CCOCC1`: 8.01 µM; `CCOC(=O)Cn1cnc2c(NCCN3CCOCC3)nc(-c3ccc(N4CCN(C)CC4)cc3)nc21`: 5.2 µM.
